Target: T1, RAF-1 (Homo sapiens, UniProt P04049)
T1 construct: made in house; host or cells: Sf9 (Spodoptera frugiperda) cells co-infected with RAS and RAF recombinant baculoviruses
Assay: RAF-1 ELISA phosphorylation assay (RAF-catalyzed phosphorylation of MEK and MAPK)
Type: biochemical
Conditions: RAF-1 phosphorylation assay, lysates from RAS/RAF infected Sf9 cells, substrates T-MEK and His-MAPK
Excerpt: The following assay reports the amount of RAF-catalyzed phosphorylation of its target protein MEK as well as MEK's target MAPK. The RAF gene sequence is described in Bonner et al., 1985, Molec. Cell. Biol. 5: 1400-1407, and is readily accessible in multiple gene sequence data banks. Construction of the nucleic acid vector and cell lines utilized for this portion of the invention are fully described in Morrison et al., 1988, Proc. Natl. Acad. Sci. USA 85: 8855-8859.
• 1. Sf9 (Spodoptera frugiperda) cells; GIBCO-BRL, Gaithersburg, Md. • 2. RIPA buffer: 20 mM Tris/HCl pH 7.4, 137 mM NaCl, 10% glycerol, 1 mM PMSF, 5 mg/L Aprotenin, 0.5% Triton X-100; • 3. Thioredoxin-MEK fusion protein (T-MEK): T-MEK expression and purification by affinity chromatography were performed according to the manufacturer's procedures. Catalog#K 350-01 and R 350-40, Invitrogen Corp., San Diego, Calif. • 4. His-MAPK (ERK 2); His-tagged MAPK was expressed in XL1 Blue cells transformed with pUC18 vector encoding His-MAPK. His-MAPK was purified by Ni-affinity chromatography. Cat#27-4949-01, Pharmacia, Alameda, Calif., as described herein. • 5. Sheep anti mouse IgG: Jackson laboratories, West Grove, Pa. Catalog, #515-006-008, Lot#28563 • 6. RAF-1 protein kinase specific antibody: URP2653 from UBI. • 7. Coating buffer: PBS; phosphate buffered saline, GIBCO-BRL, Gaithersburg, Md. • 8. Wash buffer: TBST-50 mM Tris/HCL pH 7.2, 150 mM NaCl, 0.1% Triton X-100 • 9. Block buffer: TBST, 0.1% ethanolamine pH 7.4 • 10. DMSO, Sigma, St. Louis, Mo. • 11. Kinase buffer (KB): 20 mM Hepes/HC1 pH 7.2, 150 mM NaCl, 0.1% Triton X-100, 1 mM PMSF, 5 mg/L Aprotenin, 75 μM sodium ortho vanadate, 0.5 MM DTT and 10 mM MgCl2. • 12. ATP mix: 100 mM MgCl2, 300 μM ATP, 10 μCi γ-^33P ATP (Dupont-NEN)/mL. • 13 Stop solution: 1% phosphoric acid; Fisher, Pittsburgh, Pa. • 14. Wallac Cellulose Phosphate Filter mats; Wallac, Turku, Finnland. • 15. Filter wash solution: 1% phosphoric acid, Fisher, Pittsburgh, Pa. • 16. Tomtec plate harvester, Wallac, Turku, Finnland. • 17. Wallac beta plate reader #1205, Wallac, Turku, Finnland. • 18. NUNC 96-well V bottom polypropylene plates for compounds Applied Scientific Catalog #AS-72092. Procedure
All of the following steps were conducted at room temperature unless specifically indicated. • 1. ELISA plate coating: ELISA wells are coated with 100 μL of Sheep anti mouse affinity purified antiserum (1 μg/100 μL coating buffer) over night at 4° C. ELISA plates can be used for two weeks when stored at 4° C. • 2. Invert the plate and remove liquid. Add 100 μL of blocking solution and incubate for 30 min. • 3. Remove blocking solution and wash four times with wash buffer. Pat the plate on a paper towel to remove excess liquid. • 4. Add 1 μg of antibody specific for RAF-1 to each well and incubate for 1 hour. Wash as described in step 3. • 5. Thaw lysates from RAS/RAF infected Sf9 cells and dilute with TBST to 10 μg/100 μL. Add 10 μg of diluted lysate to the wells and incubate for 1 hour. Shake the plate during incubation. Negative controls receive no lysate. Lysates from RAS/RAF infected Sf9 insect cells are prepared after cells are infected with recombinant baculoviruses at a MOI of 5 for each virus, and harvested 48 hours later. The cells are washed once with PBS and lysed in RIPA buffer. Insoluble material is removed by centrifugation (5 min at 10,000×g). Aliquots of lysates are frozen in dry ice/ethanol and stored at −80° C. until use. • 6. Remove non-bound material and wash as outlined above (step 3). • 7. Add 2 μg of T-MEK and 2 μg of His-MAEPK per well and adjust the volume to 40 μL with kinase buffer. Methods for purifying T-MEK and MAPK from cell extracts are provided herein by example. • 8. Predilute compounds (stock solution 10 mg/mL DMSO) or extracts 20 fold in TBST plus 1% DMSO. Add 5 μL of the prediluted compounds/extracts to the wells described in step 6. Incubate for 20 min. Controls receive no drug. • 9. […]

T1 sequence (P04049 whole entry): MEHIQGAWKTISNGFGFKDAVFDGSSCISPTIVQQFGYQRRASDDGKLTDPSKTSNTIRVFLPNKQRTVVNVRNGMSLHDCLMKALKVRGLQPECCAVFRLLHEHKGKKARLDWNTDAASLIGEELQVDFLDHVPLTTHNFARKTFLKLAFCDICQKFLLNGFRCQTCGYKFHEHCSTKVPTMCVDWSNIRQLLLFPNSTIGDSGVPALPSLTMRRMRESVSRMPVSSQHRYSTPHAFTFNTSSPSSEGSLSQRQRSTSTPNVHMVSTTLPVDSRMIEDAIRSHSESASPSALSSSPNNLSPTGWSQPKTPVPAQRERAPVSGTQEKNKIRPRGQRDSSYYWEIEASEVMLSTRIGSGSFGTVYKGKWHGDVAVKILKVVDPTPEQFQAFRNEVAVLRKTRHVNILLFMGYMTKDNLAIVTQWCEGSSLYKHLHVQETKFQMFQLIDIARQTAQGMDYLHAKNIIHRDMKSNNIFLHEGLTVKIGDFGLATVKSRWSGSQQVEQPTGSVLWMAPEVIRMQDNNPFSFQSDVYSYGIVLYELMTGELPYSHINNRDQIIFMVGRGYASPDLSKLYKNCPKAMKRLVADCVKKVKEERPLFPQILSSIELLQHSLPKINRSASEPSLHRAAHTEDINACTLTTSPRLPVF

Row | IC50 [µM] | SMILES
1 | 0.3 | Nc1ncnc2cccc(Oc3ccc(OCc4ccccc4)cc3)c12 [Compound A-28, 4-Amino-5-(4-benzyloxyphenoxy)quinazoline]
2 | 20 | COc1ccccc1Oc1cccc2nc(N)nc(N)c12 [Compound A-22, 2,4-Diamino-5-(2-methoxyphenoxy)quinazoline]
3 | 6.4 | COc1cccc(Oc2cccc3nc(N)nc(N)c23)c1 [Compound A-23, 2,4-Diamino-5-(3-methoxyphenoxy)quinazoline]

Further lines, the compound ahead of its results:

Row | SMILES | IC50 [µM]
4 | Nc1nc(N)c2c(Oc3ccccc3)cccc2n1 [Compound A-1, 2,4-Diamino-5-phenoxyquinazoline] | 0.3
5 | Cc1ccc(Oc2cccc3nc(N)nc(N)c23)cc1 [Compound A-9, 2,4-Diamino-5-(4-methylphenoxy)quinazoline] | 4.5
6 | CC(C)(C)c1ccc(Oc2cccc3nc(N)nc(N)c23)cc1 [Compound A-8, 2,4-Diamino-5-(4-tert-butylphenoxy)quinazoline] | > 100
7 | Nc1nc(N)c2c(Oc3ccc(F)cc3)cccc2n1 [Compound A-7, 2,4-Diamino-5-(4-fluorophenoxy)quinazoline] | 5.8
8 | COc1ccc(Oc2cccc3nc(N)nc(N)c23)cc1 [Compound A-6, 2,4-Diamino-5-(4-methoxyphenoxy)quinazoline] | 0.8

— patent US6911446B2, “Methods of modulating serine/threonine protein kinase function with quinazoline-based compounds” (Sugen, Inc., priority 1997, dated 2005)
